From patent publication US20150132339A1, “ADJUVANTED FORMULATIONS OF STR[…]” (NOVARTIS AG, priority 2012, published 2015)

What was measured:
Type in all cases: physicochemical
[1] = Degradation after formulation; settings: RrgB321 / K2 / Al—H formulation
Experimental: (§1) The combination of RrgB321 used in this study corresponds to a fusion between RrgB sequences from (3) Taiwan-23F (2) Finland 6B-12 (1) TIGR4, and thus comprises pili of clades III, II and I. Details of RrgB321 are provided in references 235 and 236. RrgB321 was expressed with a His tag. The final RrgB321 vaccine composition contains antigen (0.4 mg/ml), compound K2 (2 mg/ml), Al—H (2 mg/ml), NaCl (9 mg/ml), histidine buffer (10 mM, pH 6.5), formulation volume: 0.05 ml (in water).
(§2) To determine whether the K2 remains adsorbed to Al—H, compositions were prepared as above.

[2] = Adsorption of compound K2 to aluminium hydroxide adjuvant (Al—H); settings: Al—H 2 mg/ml
Experimental: as §2

[3] = Adsorption of RrgB321 to Al—H (SDS-PAGE)
Experimental: as §1, §2

Row | Compound | degradation patterns after formulation [1] | compound K2 adsorbed to the Al—H ([2]; at all strengths) [%] | K2 remains adsorbed to Al—H ([2]; HPLC, RrgB321 composition) | RrgB321 adsorption to Al—H ([3]; in the absence of K2) [%] | RrgB321 adsorption to Al—H ([3]; in the presence of K2)
1 | Cc1cc(OCCOCCOCCP(=O)(O)O)ccc1CCc1cnc2c(N)nc3cc(CCC(=O)O)ccc3c2c1 [compound K2, 3-(5-amino-2-(2-methyl-4-(2-(2-(2-phosphonoethoxy)ethoxy)ethoxy)phenethyl)benzo[f]-[1,7]naphthyridin-8-yl)propanoic acid] | Neither antigen nor K2 showed detectable degradation patterns | > 95 | at least 97% |  | 
2 | RrgB321: fusion between RrgB sequences from Taiwan-23F, Finland 6B-12 and TIGR4 (clades III, II, I), e.g. SEQ ID NO: 250, His tag | Neither antigen nor K2 showed detectable degradation patterns |  |  | > 95 | approximately 50%
